Peptide text beside a SMILES is read from it. * marks the point of attachment. Cbz = O=C(OCc1ccccc1)*
Columns and labels:
human keratinocytes = type: cell-based; settings: 2 h, 0.1 mM
Method: The human keratinocytes were maintained in culture for 24 hours in 96-well plates for monolayer formation and the cells were pre-incubated in darkness with 0.1 mM of Ac-L-His-L-Pro-L-Leu-L-Arg-OH, Ac-L-His-L-Leu-L-Leu-L-Arg-OH in culture medium or with vehicle (culture medium) for 2 hours at 37° C. Subsequently the cells were radiated with UVB at an energy of 800 J/m^2. A control plate with vehicle was maintained in the dark without radiation for the same time at room temperature. After the irradiation period the cells' medium was replaced by a fresh medium and the cells were incubated for additional 24 hours. Cell viability was determined by the MTT method, adding 5 mg/mL of the MTT solution to each well and incubating the plate for 4 hours at 37° C., after which time the medium was removed, 100μL of DMSO was added and the plate was stirred at room temperature for 15 min. The optical density of each well was measured at 570 nm in a spectrophotometer.

Hsp70 = Hsp70 synthesis stimulation assay (competitive ELISA); type: cell-based; settings: human keratinocyte cell line, normalized to average basal values
Method: Hsp70 synthesis stimulation was assessed in a human keratinocyte cell line in the presence of the peptides of the invention. The cells were seeded (10^6 cells/6-well plate) and incubated for 24 hours in DMEM, after which the peptides were added to 200 μM in culture medium and were incubated for another 16-24 hours. The proteasome inhibitor MG-132 at 10 μM was used as a positive control and vehicle (culture medium) as a negative control. After the incubation period, the cells were washed with PBS, lysed and centrifuged at 12,000 rpm at 4° C. for 10 min. The supernatants were collected, and the Hsp70 levels were determined by carrying out a competitive ELISA assay following the protocols of the commercial kit (DuoSet IC human/mouse total HSP70 ELISA kit, R&D Systems Inc.)
Hsp70 levels were normalized with regards to the average basal values.

SMILES | CELL VIABILITY (human keratinocytes) | Hsp70 increase (Hsp70; peptide 200 μM, 16-24 hours) | Hsp70 increase (Hsp70; positive control MG-132 at 10 μM)
CC(=O)N[C@@H](Cc1c[nH]cn1)C(=O)N[C@@H](CC(C)C)C(=O)N[C@@H](CC(C)C)C(=O)N[C@@H](CCCNC(=N)N)C(=O)O [Ac-L-His-L-Leu-L-Leu-L-Arg-OH] (Ac-HLLR-OH) | 87.7% | 28% | 
CC(=O)N[C@@H](Cc1c[nH]cn1)C(=O)N1CCC[C@H]1C(=O)N[C@@H](CC(C)C)C(=O)N[C@@H](CCCNC(=N)N)C(=O)O [Ac-L-His-L-Pro-L-Leu-L-Arg-OH] (Ac-HPLR-OH) | 97.2% | 42% | 
CC(C)C[C@@H](C=O)NC(=O)[C@H](CC(C)C)NC(=O)[C@H](CC(C)C)NC(=O)OCc1ccccc1 [MG-132, reference compound] (Cbz-Leu-Leu-Leu-aldehyde) |  |  | 294%

From US8993716B2, “Peptides used in the treatment and/or care of the skin, mucous membranes and/or hair and its use in cosmetic or pharmaceutical compositions” (Lipotec, S.A., priority 2009, dated 2015)
